Assay results: the NIST ThermoML archive (doi:10.1016/j.tca.2008.10.019)
± gives the expanded uncertainty stated by the source.

Experiments:
[1] = Crystal; DTA
[2] = Molar enthalpy of transition or fusion; conditions: Crystal; DSC

Compound: NC(=O)CC(N)=O [1,3-propanedioic acid, diamide]
- Normal melting temperature [1]: 170.00 ± 0.5 °C
- Molar enthalpy of transition or fusion [2]: 5.55 ± 0.172 kcal/mol
